Assay results as given in US11230527B2, “Solid forms of 2-(5-(4-(2-morpholinoethoxy)phenyl)pyridin-2-yl)-n- benzylacetamide” (Athenex HK Innovative Limited, priority 2017, dated 2022).

Legend:
Assay type in all cases: physicochemical
[1] = HPLC chemical stability after storage at various conditions; conditions: for Area Percent at 248 nm T1 week: 1 week; for Area Percent at 248 nm T2 week: 2 weeks; for Area Percent at 248 nm T4 week: 4 weeks; for Area Percent at 248 nm T8 week: 8 weeks
Description: High-performance Liquid Chromatography (HPLC) analysis was performed to determine the chemical stability of Forms A, B, and C of Compound A after storage at various conditions, using an Agilent 1100 system with DAD. Chemical stability was estimated by measuring and comparing the area percent of the material peak at various time points. For High-performance Liquid Chromatography (HPLC) analysis, an Agilent 1100 system with DAD was used.

[2] = XRPD physical form stability under storage conditions; conditions: up to eight weeks
Description: (§1) XRPD analysis is carried out using a diffractometer running in reflection mode. The 2-theta position is calibrated against a standard before running the experiment. XRPD analysis was carried out on a Panalytical X'Pert^3 Powder XRPD on a Si zero-background holder, scanning the samples between 3 and 40° 2-theta. The 2-theta position was calibrated against Panalytical 640 Si powder standard. The test material was gently compressed on a glass disc inserted into a sample holder. The sample was then loaded into a Panalytical X'Pert^3 Powder XRPD diffractometer running in reflection mode and analyzed, using the following experimental conditions.

[3] = Dynamic Vapor Sorption (DVS)
Description: Dynamic Vapor Sorption (DVS) was measured using a SMS (Surface Measurement Systems) DVS Intrinsic. The test was performed at 25° C. while the RH was varied from 0% to 95% at 10% increments in the range of 0% RH-90% RH and at 5% increment up to 95% RH. The change in mass after each increase or decrease in the RH was recorded as a percentage of the original mass of the starting material. Dynamic Vapor Sorption (DVS) was measured using a SMS (Surface Measurement Systems) DVS Intrinsic, using the following parameters: [table]

Solubility estimation = conditions: thermodynamic from solid
Description: Solubility of the solid forms of the present application in a variety of solvents is measured. Solvent is added to a sample until the total volume reaches 100 μL, followed by 100 μL per step until the sample is dissolved or the concentration is less than <1.0 mg/mL. The approximate solubility is then calculated.
Solubility of the solid forms of the present application in a variety of solvents was measured according to the following procedures. A sample (˜2 mg) was weighed into a 4-mL glass vial. Solvent was added into the vial stepwise at 50 μL per step until the total volume was 100 μL, followed by 100 μL per step until concentration was less than 1.0 mg/mL. The solutions were mixed thoroughly after each addition by sonication for 2 minutes and vortexing for 1 minute. The addition of solvent was complete if the sample was dissolved or the concentration was <1.0 mg/mL. The volumes of solvent (V1 and V2) were recorded, and approximate solubility was calculated.

[4] = XRPD after air-drying or vacuum drying
Description: as §1, with “XRPD” for “XRPD analysis is carried out using a diffractometer running in reflection mode. The 2-theta position is calibrated against a standard before running the experiment. XRPD”

- Area Percent at 248 nm T1 week ([1]; 25° C./60% RH): 99.8 Area Percent
- Area Percent at 248 nm T2 week ([1]; 25° C./60% RH): 99.8 Area Percent
- Area Percent at 248 nm T4 week ([1]; 25° C./60% RH): 99.8 Area Percent
- Area Percent at 248 nm T8 week ([1]; 25° C./60% RH): 99.8 Area Percent
- Area Percent at 248 nm T0 ([1]; 25° C./60% RH): 99.8 Area Percent
- Area Percent at 248 nm T1 week ([1]; 40° C./75% RH): 99.8 Area Percent
- Area Percent at 248 nm T2 week ([1]; 40° C./75% RH): 99.8 Area Percent
- Area Percent at 248 nm T4 week ([1]; 40° C./75% RH): 99.8 Area Percent
- Area Percent at 248 nm T8 week ([1]; 40° C./75% RH): 99.8 Area Percent
- Area Percent at 248 nm T0 ([1]; 40° C./75% RH): 99.8 Area Percent
- Area Percent at 248 nm T1 week ([1]; 55° C./75% RH): 99.8 Area Percent
- Area Percent at 248 nm T2 week ([1]; 55° C./75% RH): 99.8 Area Percent
- Area Percent at 248 nm T4 week ([1]; 55° C./75% RH): 99.7 Area Percent
- Area Percent at 248 nm T8 week ([1]; 55° C./75% RH): 99.8 Area Percent
- Area Percent at 248 nm T0 ([1]; 55° C./75% RH): 99.8 Area Percent
- Area Percent at 248 nm T1 week ([1]; Ambient): 99.8 Area Percent
- Area Percent at 248 nm T2 week ([1]; Ambient): 99.7 Area Percent
- Area Percent at 248 nm T4 week ([1]; Ambient): 99.7 Area Percent
- Area Percent at 248 nm T8 week ([1]; Ambient): 99.7 Area Percent
- Area Percent at 248 nm T0 ([1]; Ambient): 99.8 Area Percent
- change in HPLC area percent purity (LCAP) ([1]; selected storage conditions, time points over eight-week study): no significant decrease
- change in physical form (XRPD) ([2]; 25° C./60% RH): no change in physical form
- change in physical form (XRPD) ([2]; 40° C./75% RH): no change in physical form
- change in physical form (XRPD) ([2]; 55° C./75% RH): no change in physical form
- change in physical form (XRPD) ([2]; ambient conditions): no change in physical form
- hygroscopicity [3]: non-hygroscopic
- XRPD pattern after exposure to DVS experiment ([3]; 25° C. and RH up to 95%): does not change
- water uptake ([3]; between 0 and 80% RH at between 25° C. and 45° C.): less than 0.2 % w/w
- solubility thermodynamic (Solubility estimation; aqueous): < 1.5 mg/mL
- solubility (Solubility estimation; water, aqueous solution (e.g., water), room temperature, read-out: aqueous solubility (dissolved completely)): > 20 mg/mL
- crystallinity after drying (XRPD) [4]: no loss of crystallinity
SMILES: O=C(Cc1ccc(-c2ccc(OCCN3CCOCC3)cc2)cn1)NCc1ccccc1 [Form A, 2-(5-(4-(2-morpholinoethoxy)phenyl)pyridin-2-yl)-N-benzylacetamide]
